Measurements taken from US20250127813A1, “COMBINATION DRUG” (OTSUKA PHARMACEUTICAL CO., LTD., priority 2021, published 2025).
Entries after “also recorded” stand apart in the source; their conditions may differ.

System: NALM6-luc2
Experimental: 6-week-old NOG mice produced by In-Vivo Science Co., Ltd., were obtained, and tumor cells were intravenously transplanted into the mice at 7 weeks of age to prepare tumor-bearing mice. The day before the transplantation, busulfex (BSF) was intraperitoneally administered at 20 mg/kg. During the breeding period, the mice were housed with 5 mice per group and bred in a P2A breeding room set to a temperature of 24° C. (actual measurement: 19.7 to 25.0° C.), humidity of 50% (actual measurement: 38.6 to 58.5%), and illumination of 12 hours/day (8:00 a.m. to 8:00 p.m.). During the breeding period, the mice were allowed free access to radiation-sterilized solid feed for mice (CL-2, produced by Clea Japan, Inc.) and autoclave-sterilized tap water placed in a water bottle.
CD19 CAR-T cells were intravenously administered once according to the group constitution on the same day as grouping. The IAP antagonist also started to be administered on the same day as grouping and was orally or intravenously administered according to the group constitution table.
The evaluation period was set to 3 to 4 weeks. Grouping and pharmacological evaluation were performed based on tumor luminescence values as determined by IVIS (trademark). Luminescence value measurement by IVIS (trademark) and body weight measurement were performed twice a week.
For NALM6-luc2, after resuspension, a portion of the cell suspension was taken, dead cells were stained with AOPI Staining Solution, and the number of viable cells was counted with a blood cell measuring device. A cell suspension was prepared by diluting the cells with RPMI 1640 to 1×10^7 cells/mL, based on the measurement results of viable cell count of the cells. Similarly, in a low tumor volume system, a cell suspension was prepared by diluting the cells with serum-free RPMI 1640 to achieve a concentration of 1×10^6 cells/mL.
After the mice were retained using a retainer, a cell suspension was transplanted at 1×10^6 cells/0.1 mL/body using a 27G Myjector (1 mL, produced by Terumo Corporation) to the tail vein of each mouse with no anesthesia. In the low tumor volume system, a cell suspension at 1×10^5 cells/0.1 mL/body was transplanted.
In accordance with the dosing regimen shown in FIG. 6, NALM6-luc2 was transplanted the day after treating the […] with busulfex. On the third day after the transplantation, luminescence values were measured using the IVIS (trademark) Lumina X5 In-Vivo imaging system (produced by PerkinElmer, Co., Ltd.). Using the luminous values as an indicator and using SAS software R9.4 (produced by SAS Institute Japan), the mice were divided into groups of 5 mice each by the stratified random sampling method.
1) A suspension of CD19 CAR-T cells was administered to the tail vein at the time of grouping. For the dosage, the number of viable CD19 CAR-T cells was counted and a cell suspension prepared according to the group constitution table was administered once at 0.1 mL/body. For the administration, a Myjector syringe with a 27G needle was used.
5) Birinapant was intraperitoneally administered at a dose of 10 mL/kg according to the group composition table. Tolinapant, LCL161, and AT406 were orally administered at a dose of 10 mL/kg according to the group composition table using a sonde in the same manner. For intraperitoneal administration, an insulin syringe with a 26G needle was used in place of the sonde. For oral administration, a needle was used in place of the sonde to administer each drug.
VivoGlo™-luciferin (produced by Promega) was dissolved in D-PBS(−) to achieve a concentration of 30 mg/mL and then cryopreserved at −20° C. under light-shielded conditions. On the day of measurement, dissolved VivoGlo™-luciferin was diluted with an equivalent amount of D-PBS(−) and stored at room temperature under light-shielded conditions until use for testing. Based on the body weight measured in advance, VivoGlo™-luciferin was intraperitoneally administered in a volume of 10 mL/kg.

[1] = LCL161 30 mg/kg qw po + CD19 CAR-T 1×10^5 cells/body iv

In the case of `CN[C@@H](C)C(=O)N[C@H]1CN(C(=O)CC(C)C)CC[C@H]2CC[C@@H](C(=O)NC(c3ccccc3)c3ccccc3)N2C1=O` [AT406, reference compound], the “effect of AT406 + 1×10^5 cells CD19 CAR-T compared with 1×10^6 cells CD19 CAR-T alone” value (AT406 100 mg/kg qd po + CD19 CAR-T 1×10^5 cells/body iv) is reported as “an effect equivalent to the effect achieved by 1×10^6 cells of CD19 CAR-T alone was observed on day 14 and thereafter”, the “combination effect of AT406 and CD19 CAR-T” value (AT406 100 mg/kg qd po + CD19 CAR-T 1×10^5 cells/body iv, 100 mg/kg) is reported as “a combination effect was observed on day 10 and thereafter; also recorded: showed a combination effect with CD19 CAR-T; also recorded: a combination effect profile similar to that of tolinapant” and the “efficacy of AT406 administered alone” value (AT406 alone, 100 mg/kg, daily oral administration) is reported as “showed no efficacy”.
In the case of `CC[C@H](NC(=O)[C@H](C)NC)C(=O)N1C[C@@H](O)C[C@H]1Cc1c(-c2[nH]c3cc(F)ccc3c2C[C@@H]2C[C@H](O)CN2C(=O)[C@H](CC)NC(=O)[C@H](C)NC)[nH]c2cc(F)ccc12` [Birinapant, reference compound], the “combination effect of birinapant and CD19 CAR-T compared to CD19 CAR-T alone” value (birinapant 12 mg/kg q3-4d ip + CD19 CAR-T 1×10^5 cells/body iv) is reported as “did not increase antitumor effects” and the “efficacy of birinapant administered alone” value (birinapant alone, 12 mg/kg, intraperitoneal administration twice a week) is reported as “showed no efficacy”.
`CN[C@@H](C)C(=O)N[C@H](C(=O)N1CCC[C@H]1c1nc(C(=O)c2ccc(F)cc2)cs1)C1CCCCC1` [LCL161, reference compound] was tested, and the “death of mice under LCL161 alone” value (LCL161 30 mg/kg orally twice a week) was “at least half of the mice died”, the “effect of LCL161 + 1×10^5 cells CD19 CAR-T compared with 1×10^6 cells CD19 CAR-T alone” value [1] was “an effect equivalent to the effect achieved by using 1×10^6 cells of CD19 CAR-T alone was observed on day 14 and thereafter” and the “highest efficacy of combined use of LCL161 compared with combined use of tolinapant” value [1] was “lower than the efficacy achieved by the combined use of tolinapant”. The “combination effect of LCL161 and CD19 CAR-T” value (LCL161 30 mg/kg qw po + CD19 CAR-T 1×10^5 cells/body iv, 30 mg/kg) was “a significant combination effect was observed on day 7 and thereafter; also recorded: showed a combination effect with CD19 CAR-T”, the “toxicity of LCL161 (death, weight loss) in the combination test” value (LCL161 30 mg/kg qw po, combination test with CD19 CAR-T, 30 mg/kg) was “highly toxic; also recorded: at least half of the animals died due to LCL161; also recorded: showed such toxicity as to confirm weight loss and death” and the “efficacy of LCL161 administered alone” value (LCL161 alone, 30 mg/kg orally twice a week) was “no effects were exhibited”.
